{"source": "patent US4686103A", "about": "“Method of managing cattle breeding herds” (Iowa State University Research Foundation, Inc., priority 1985, dated 1987)", "key": {"[1]": {"tested_on": "first-calf crossbred beef heifers", "assay": "Induction of parturition with relaxin in combination with dexamethasone or cloprostenol", "assay_type": "in vivo, cattle", "settings": "for Interval between treatment and calving: mean ± SE", "source_text": "Crossbred beef heifers were bred by artificial insemination and assigned randomly to treatment groups on day 268 of pregnancy. Blood samples were collected daily for radioimmunoassay of relaxin, progesterone, estrone and 17β-estradiol. Daily measures were obtained of pelvic dimensions and cervical dilation during the prepartum and postpartum periods. On day 272, heifers were given relaxin alone, or in combination with a prostaglandin (e.g., cloprostenol) or a glucocorticoid (e.g., dexamethasone).\nOn day 272, 10 days before expected parturition, dexamethasone (20 mg) was administered intramuscularly (im) to 30 first-calf crossbred beef heifers. Relaxin (3,000 Units) was administered either at the same time or 24 h later either im or infused into the cervical os. The relaxin was dissolved in phosphate buffer saline (PBS) for im injection and in PBS plus a sterile gel for infusion in the cervical os. Controls received the dexamethasone im plus either 1 ml PBS im or 1 ml PBS-gel vehicle infused into the cervical os. There were 5 heifers assigned randomly to each treatment group.\nOn day 272, cloprostenol (500 μg) was administered im to 30 first-calf crossbred beef heifers. Relaxin (3,000 Units) wad administered either at the same time or 24 h later either im or infused into the cervical os. The relaxin was dissolved in PBS for injection and in PBS plus sterile gel for infusion into the cervical os. Controls received the cloprostenol im plus either 1 ml PBS im or 1 ml PBS-gel vehicle infused into the cervical os. There were 5 heifers assigned randomly to each treatment group."}, "[2]": {"tested_on": "estrogen-primed immature Swiss-Webster mice", "settings": "unit defined by interpubic ligament formation vs WL1000 standard; cited from earlier work"}, "primiparous beef heifers [3]": {"tested_on": "primiparous beef heifers", "assay": "Relaxin-induced parturition in beef heifers, intracervical infusion on day 278", "assay_type": "in vivo, cattle", "settings": "for Day of calving: day of gestation, mean ± SE", "source_text": "Forty-seven crossbred beef heifers approaching their first calving were used in this study. All heifers were bred by artificial insemination at estrus (day 0); pregnancy lasts approximately 283 days. Heifers calved at an average age of 25^± 1 months (± standard error, SE). Heifers were maintained under pasture conditions during the spring, summer and fall throughout gestation. Mixed silage (6.8 kg/animal/day) supplemented the hay fed during the winter. During the month before calving, corn (2/3 kg/animal/day) and mixed silage (9.0 kg/animal/day) were fed in addition to the ad libitum supply of hay.\n(§1) Beginning on day 270 of gestation, the animals were assigned randomly to one of three treatment groups; gel vehicle-treated controls, Number (N)=16; single relaxin-treated heifers, N=14; and double relaxin-treated heifers, N=17. A daily blood sample (10 ml) was obtained from a jugular vein via a hypodermic needle (16 gauge, 3.8-cm length). The blood was divided equally into two culture tubes containing 0.1 ml of heparinized saline (10 U/ml), maintained on ice, and centrifuged (2,000×g; 4° C.); plasma was decanted into two culture tubes, frozen, and stored at -20° C. for radioimmunoassay of progesterone, estrone (E1), and 17β-estradiol (17β-E2. Pelvic and cervical measurements were obtained immediately after the blood collection except on the day of treatment and postcalving, when these measurements were obtained at 12-hour intervals for 60 hours. Relaxin (1 mg, 3,000 U/mg) was infused 4 cm into the cervical os by a sterile insemination pipette on day 278.\nRelaxin was extracted from ovaries of pregnant pigs and purified according to procedures described previously. See Schwabe et al., Rec. Prog. Horm. Res. (1978) 34:123. Purified porcine relaxin (3,000 U/mg) was suspended in 1 ml of vehicle prepared by mixing 0.01 molar phosphate buffer saline (M PBS), pH 7.0, and sterile gel (1 ml volume/volume \"KY-4\", a surgical lubricating jelly, Johnson and Johnson, Inc., New Brunswick, N.J.). Relaxin or gel vehicle was infused by means of a sterile insemination pipette after the cervical probe was withdrawn. A gloved hand was maintained in the reproductive tract of the heifer to guide the pipette through the cervical sphincter. Relaxin or the gel vehicle then was introduced and deposited 4 cm into the cervix."}, "primiparous beef heifers [4]": {"tested_on": "primiparous beef heifers", "assay": "Relaxin effect on pelvic area and cervical dilatation in beef heifers", "assay_type": "in vivo, cattle", "settings": "for cervical dilatation increase: within 24 h after administration", "experimental": "as §1\nRelaxin was extracted from ovaries of pregnant pigs and purified according to procedures described previously. See Schwabe et al., Rec. Prog. Horm. Res. (1978) 34:123. […]\nDilatation of the cervix was measured intravaginally by using a specially designed stainless-steel probe. […] The tips of the rods were expanded by rotating the conical swivel to a uniform resistance against the cervical wall, then withdrawn, and the separation of the rods was measured.\nThe area of the pelvic canal was calculated from determination of height and width by using a pelvimeter (Lane Manufacturing, Inc., Denver, Colo.) providing internal landmarks. Pelvic height was determined by measuring the linear distance from the midpoint of the dorsal surface of the symphysis pubis to the ventral surface of the prominent junction of the third and fourth sacral segments. Pelvic widths were determined by measuring the greatest linear distance between depression points in the shaft of the ilia at right angles to the vertical measurements. […]"}, "cows": {"tested_on": "cows", "settings": "cited from earlier work"}, "[5]": {"tested_on": "first- and second-calf beef heifers", "assay": "Induction of parturition with cloprostenol and relaxin or PBS im", "assay_type": "in vivo, cattle", "settings": "for Animals with placenta retained ≥24 h / Ease of calving: day 272; for Interval between treatment and calving: day 272, mean ± SE", "experimental": "The effect of cloprostenol and relaxin or PBS given im on induction or parturition was determined in 16 first-calf and 25 second-calf beef heifers. The 41 heifers were given cloprostenol im plus relaxin or PBS im on day 272 of pregnancy."}, "[6]": {"settings": "overall: relaxin with Dex or Clo vs Dex or Clo plus PBS"}, "[7]": {"settings": "relaxin twice (2 × 3,000 U, 12 h apart)"}, "[8]": {"settings": "first-calf heifers treated day 272"}, "[9]": {"settings": "first-calf heifers treated day 272, relaxin 3,000 Units, dexamethasone 20 mg or cloprostenol 500 μg"}}, "note": "Where two headings read alike, the source gives them in different places."}
{"compound": "relaxin", "values": [{"measurement": "Animals with placenta retained ≥24 h", "setting": "[1]; [6]", "result": 23, "unit": "%"}, {"measurement": "Ease of calving", "setting": "[1]; [6]", "result": 62, "unit": "%"}, {"measurement": "Interval between treatment and calving", "setting": "[1]; overall: relaxin with Dex or Clo vs Dex or Clo plus PBS, 60 first-calf heifers", "result": "34 ± 2.8", "unit": "h"}, {"measurement": "Interval between treatment and calving", "setting": "[1]; overall: relaxin with Dex or Clo vs Dex or Clo plus PBS, 60 first-calf heifers, listed as relaxin", "result": 34, "unit": "h"}, {"measurement": "relaxin potency", "setting": "[2]", "result": 3000, "unit": "Units/mg"}, {"measurement": "incidence of retained placenta beyond 24 h postpartum", "setting": "primiparous beef heifers [3]; all relaxin-treated heifers (once or twice)", "result": "0 of 31"}, {"measurement": "Heifers calving within 48 h after treatment, %", "setting": "primiparous beef heifers [3]; relaxin once (3,000 U)", "result": 45, "unit": "%"}, {"measurement": "Mean interval of days between first treatment and calving", "setting": "primiparous beef heifers [3]; relaxin once (3,000 U)", "result": 2.5, "unit": "days"}, {"measurement": "Day of calving", "setting": "primiparous beef heifers [3]; relaxin once (3,000 U) into cervical os", "result": "280.5 ± 0.8"}, {"measurement": "Heifers calving within 48 h after treatment, No.", "setting": "primiparous beef heifers [3]; relaxin once (3,000 U), 14 heifers", "result": 6}, {"measurement": "calved earlier than PBS-gel vehicle-treated heifers, average", "setting": "primiparous beef heifers [3]; relaxin twice", "result": 3.3, "unit": "days"}, {"measurement": "Heifers calving within 48 h after treatment, %", "setting": "primiparous beef heifers [3]; [7]", "result": 88, "unit": "%"}, {"measurement": "Mean interval of days between first treatment and calving", "setting": "primiparous beef heifers [3]; [7]", "result": 2.0, "unit": "days"}, {"measurement": "Day of calving", "setting": "primiparous beef heifers [3]; relaxin twice (2 × 3,000 U, 12 h apart) into cervical os", "result": "278.6 ± 1.2"}, {"measurement": "Heifers calving within 48 h after treatment, No.", "setting": "primiparous beef heifers [3]; relaxin twice (2 × 3,000 U, 12 h apart), 17 heifers", "result": 15}, {"measurement": "heifers calving within 24 h after treatment", "setting": "primiparous beef heifers [3]; relaxin-treated group vs PBS-gel vehicle, P<0.001", "result": "more heifers calving"}, {"measurement": "duration of gestation", "setting": "primiparous beef heifers [3]; relaxin-treated heifers vs PBS-gel vehicle controls, P<0.05", "result": "reduced"}, {"measurement": "pelvic area", "setting": "primiparous beef heifers [4]; 12 h after treatment, all relaxin-treated heifers, P<0.05", "result": "marked increases"}, {"measurement": "cervical dilatation increase", "setting": "primiparous beef heifers [4]; relaxin once", "result": 526, "unit": "%"}, {"measurement": "cervical dilatation increase", "setting": "primiparous beef heifers [4]; relaxin twice", "result": 634, "unit": "%"}, {"measurement": "duration of pregnancy", "setting": "cows; 3000 U/mg, four days before expected parturition", "result": "did not significantly reduce"}, {"measurement": "cervical dilation", "setting": "cows; cows, a few days before expected parturition", "result": "induce cervical dilation"}, {"measurement": "duration of pregnancy", "setting": "cows; heifers given relaxin intracervically on three consecutive days", "result": "Some shortening of pregnancy"}]}
{"compound": "C[C@@H]1C[C@H]2[C@@H]3CCC4=CC(=O)C=C[C@]4(C)[C@@]3(F)[C@@H](O)C[C@]2(C)[C@@]1(O)C(=O)CO", "note": "[PBS + Dex, dexamethasone]", "values": [{"measurement": "Animals with placenta retained ≥24 h", "setting": "[1]; [8]", "result": 70, "unit": "%"}, {"measurement": "Ease of calving", "setting": "[1]; [8]", "result": 30, "unit": "%"}, {"measurement": "Interval between treatment and calving", "setting": "[1]; [9]", "result": "53 ± 2.6", "unit": "h"}, {"measurement": "Interval between treatment and calving", "setting": "[1]; first-calf heifers treated day 272, relaxin 3,000 Units, dexamethasone 20 mg or cloprostenol 500 μg, listed as dexamethasone plus PBS", "result": 53, "unit": "h"}]}
{"compound": "O=C(O)CCC/C=C\\CC1C(O)CC(O)C1/C=C/C(O)COc1cccc(Cl)c1", "note": "(stereo not shown) [PBS & Clo, cloprostenol]", "values": [{"measurement": "Animals with placenta retained ≥24 h", "setting": "[1]; [8]", "result": 80, "unit": "%"}, {"measurement": "Ease of calving", "setting": "[1]; [8]", "result": 40, "unit": "%"}, {"measurement": "Interval between treatment and calving", "setting": "[1]; [9]", "result": "54 ± 3.4", "unit": "h"}, {"measurement": "Interval between treatment and calving", "setting": "[1]; first-calf heifers treated day 272, relaxin 3,000 Units, dexamethasone 20 mg or cloprostenol 500 μg, listed as cloprostenol plus PBS", "result": 54, "unit": "h"}, {"measurement": "Animals with placenta retained ≥24 h", "setting": "[5]; 1st & 2nd calf heifers", "result": 93, "unit": "%"}, {"measurement": "Ease of calving", "setting": "[5]; 1st & 2nd calf heifers", "result": 63, "unit": "%"}, {"measurement": "Interval between treatment and calving", "setting": "[5]; 1st & 2nd calf heifers", "result": "45 ± 6", "unit": "h"}, {"measurement": "Animals with placenta retained ≥24 h", "setting": "[5]; 1st calf heifers", "result": 80, "unit": "%"}, {"measurement": "Ease of calving", "setting": "[5]; 1st calf heifers", "result": 40, "unit": "%"}, {"measurement": "Interval between treatment and calving", "setting": "[5]; 1st calf heifers", "result": "46 ± 5", "unit": "h"}, {"measurement": "Animals with placenta retained ≥24 h", "setting": "[5]; 2nd calf heifers", "result": 100, "unit": "%"}, {"measurement": "Ease of calving", "setting": "[5]; 2nd calf heifers", "result": 75, "unit": "%"}, {"measurement": "Interval between treatment and calving", "setting": "[5]; 2nd calf heifers", "result": "44 ± 7", "unit": "h"}]}
